Like-named read-outs stand apart in the source and are kept apart here. Where a SMILES comes first, the peptide text is derived from it. Bridges are numbered along the chain shown (N, C = ends). Where no end group is shown, it is not given here.
T1: human endothelin ETB receptor (human, UniProt P24530 27-442)
T1 construct: whole, on cells; Assayed as membrane homogenates (2.4 ug protein) of transfected CHO cells; also called endothelin receptor B
T1 sequence (looked up): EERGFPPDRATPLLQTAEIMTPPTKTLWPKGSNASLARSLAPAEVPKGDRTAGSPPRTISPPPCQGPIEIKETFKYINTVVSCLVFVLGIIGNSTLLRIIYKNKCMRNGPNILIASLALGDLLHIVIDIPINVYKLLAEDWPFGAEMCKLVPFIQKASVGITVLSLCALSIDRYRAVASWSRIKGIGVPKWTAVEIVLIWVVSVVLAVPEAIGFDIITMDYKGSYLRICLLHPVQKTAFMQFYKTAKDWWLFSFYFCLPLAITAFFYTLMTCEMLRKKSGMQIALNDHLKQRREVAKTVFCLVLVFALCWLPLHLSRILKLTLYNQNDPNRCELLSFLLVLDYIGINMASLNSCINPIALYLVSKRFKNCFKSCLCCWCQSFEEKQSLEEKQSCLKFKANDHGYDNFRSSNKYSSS

T2: human endothelin ETA receptor (human, UniProt P25101 21-427)
T2 construct: whole, on cells; Assayed as membrane homogenates (10 ug protein) of transfected CHO cells; also called endothelin receptor A
T2 sequence (looked up): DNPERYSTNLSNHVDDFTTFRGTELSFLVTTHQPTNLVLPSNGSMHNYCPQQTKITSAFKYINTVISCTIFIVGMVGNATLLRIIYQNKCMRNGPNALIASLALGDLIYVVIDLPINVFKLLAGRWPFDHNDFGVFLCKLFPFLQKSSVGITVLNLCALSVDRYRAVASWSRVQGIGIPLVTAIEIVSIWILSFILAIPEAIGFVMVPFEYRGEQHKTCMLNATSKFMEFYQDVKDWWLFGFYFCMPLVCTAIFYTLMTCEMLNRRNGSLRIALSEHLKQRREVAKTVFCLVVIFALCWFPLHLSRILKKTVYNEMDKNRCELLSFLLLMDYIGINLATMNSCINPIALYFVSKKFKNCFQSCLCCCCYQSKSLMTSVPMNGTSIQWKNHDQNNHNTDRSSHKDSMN

B1: EDN3 97-140 (peptide)
peptide: CTCFTYKDKECVYYCHLDIIWINTPEQTVPYGLSNYRESLRGKR-NH2
modifications: not fully specified; cysteine pairing not given here
notes: also called long endothelin-3; 44 amino acid, C-terminally amidated endothelin-like peptide

What was measured:
[1] = test system: GLUTag cells; details: for GLP-1 secretion from GLUTag cells, result in words: endothelin-3 at highest concentration 10 μM
[2] = test system: rat perfused colon; assay: GLP-1 secretion from rat perfused colon ex vivo; details: forskolin (1 μM), rat perfused colon, vs baseline, p=0.0398
Procedure: Ex vivo rat colon vascular perfusion experiments were performed as previously described (Plaisancié, 1995). Male Sprague-Dawley rats (300 g) were purchased from Charles River and fed ad libitum with Purina Lab Chow #5001 (WF Fisher and Son Inc Sommerville, N.J.). Rats were decapitated and the abdomen was opened with a midline incision. […] The arterial vascular perfusion started immediately with an oxygenated Krebs-Henseleit buffer containing-solution at a rate of 2 mL/minute [solution: Krebs-Henseleit buffer (25.0 mM NaHCO3; 118 mM NaCl; 4.7 mM KCl; 1.2 mM MgSO4; 1.2 mM KH2PO4; 2.5 mM CaCl2) with 3% BSA, 5 mM glucose, MEM essential and nonessential amino acids (pH 7.4)]. The colonal lumen was perfused at the rate of 0.5 mL/minute. The remaining colon and small intestine were removed after the ligation of their respective supplying vessels. After the colon preparation was transferred to a 37° C. tissue bath, the portal effluent was collected as 5 minute fractions. The fraction aliquots were frozen at −20° C. for subsequent determinations of GLP-1. EDN3 97-140 was dissolved at 200 nM in vascular perfusion solution and perfused into the artery after a 30 minute baseline collection. […] The GLP-1 detection assay was carried out by using a commercial kit for active GLP-1 (7-36) amide according to the manufacturer's instructions (Millipore). GLP-1 release data was normalized to % baseline using the average of fractions collected prior to treatment as the baseline value and the peak data following each treatment. The average data across 3 independent experiments was reported comparing EDN3 97-140 versus control (baseline) and forskolin versus control (baseline). Statistical analysis was performed by one sided Satterwaite's test due to unequal variance and the Holm test was applied to account for multiple comparisons.

[3] = test system: isolated rat aortic rings; details: read-out: EC50, concentration-dependent contractions, n=4-6
Procedure: The thoracic aorta with endothelium intact was isolated from male Wistar rats (300-500 g), cut into 3 mm rings, and placed in tissue baths with oxygenated Krebs-Henseleit buffer containing (in mM): KCl (4.7), CaCl2-2H2O (2.5), MgSO4-7H2O (1.2), KH2PO4 (1.2), D-glucose (10), NaHCO3 (25), NaCl (118). Tissues were placed under a 3 g basal tension and allowed to equilibrate for 1 hour at 37° C.

[4] = target: T1, human endothelin ETB receptor; assay: radioligand competition ([125I]endothelin-1) on membranes of CHO cells transfected with human ETB
Procedure: (§1) To evaluate the affinity of EDN3 97-140 for the agonist site of the human endothelin ETB receptor in transfected CHO cells, radioligand binding was used. […] Following incubation, the samples were filtered rapidly under vacuum through glass fiber filters (GF/B, Packard) presoaked with 0.1% BSA and rinsed several times with an ice-cold buffer containing 50 mM Tris-HCl and 150 mM NaCl using a 96-sample cell harvester (Unifilter, Packard). The filters were dried then counted for radioactivity in a scintillation counter (Topcount, Packard) using a scintillation cocktail (Microscint 0, Packard).

[5] = target: T2, human endothelin ETA receptor; assay: radioligand competition ([125I]endothelin-1) on membranes of CHO cells transfected with human ETA
Procedure: as §1, with “endothelin ETA receptor,” for “endothelin ETB receptor in transfected CHO cells,”, “binding with CHO cells transfected with the ETA receptor” for “binding”, “samples are” for “samples were”, “Packard). Filters” for “Packard). The filters”, “dried and” for “dried”

| Molecule | EC50 [1] [µM] | other results |
| --- | --- | --- |
| CTCFTYKDKECVYYCHLDIIHINTPEQTVPYGLSNYRESLRGKR-NH2 (disulfide 1-15, 3-11 (inferred)) [EDN3 97-140 W117H] | > 1 | – |
| FTYKDKESVYY-NH2 [EDN3 100-110] | > 10 | – |
| YYSHLDIIWINTPEQTVPYGLSNYRESLRGKR-NH2 [EDN3 109-140 C111S] | > 10 | – |
| CTCFTYKDKECVYYCHLDIIFINTPEQTVPYGLSNYRESLRGKR-NH2 (disulfide 1-15, 3-11 (inferred)) [EDN3 97-140 W117F] | 0.731 | GLP-1 secretion from GLUTag cells, result in words [1]: does not cause a loss of GLP-1 secretagogue function |
| STSFTYKDKESVYYSHLDIIWINTPEQTVPYGLSNYRESLRGKR-NH2 [EDN3 97-140 C->S mutant] | > 10 | – |
| CTCFTYKDKECVYYCHLDIIWINTPEQTVPYGLSNYRESLRGKR-OH (disulfide 1-15, 3-11 (inferred)) [EDN3 97-140 free acid] | 2 | – |
| CTAFTYKDKEAVYYCHLDIIWINTPEQTVPYGLSNYRESLRGKR-NH2 (disulfide 1-15) [EDN3 97-140 C99A, C107A] | 1.6 | – |
| FTYKDKECVYYCHLDIIWINTPEQTVPYGLSNYRESLRGKR-NH2 (cysteines drawn unpaired) [EDN3 100-140] | > 10 | GLP-1 secretion from GLUTag cells, result in words [1]: do not measurably stimulate GLP-1 secretion |
| C=C[C@@]1(C)CC(=O)[C@]2(O)[C@@]3(C)[C@@H](O)CCC(C)(C)[C@@H]3[C@H](O)[C@H](OC(C)=O)[C@@]2(C)O1 [forskolin, reference compound] | – | stimulation of GLP-1 release, positive control [2]: 1717±350% |
| CTCFTYKDKECVYYCHLDIIWINTPEQTVPYGLSNYRESLR-NH2 (disulfide 1-15, 3-11 (inferred)) [EDN3 97-137] | 1.72 | GLP-1 secretion from GLUTag cells, result in words [1]: partial loss of activity |
| CC[C@H](C)[C@H](NC(=O)[C@H](CC(=O)O)NC(=O)[C@H](CC(C)C)NC(=O)[C@H](Cc1c[nH]cn1)NC(=O)[C@@H]1CSSC[C@H](N)C(=O)N[C@@H]([C@@H](C)O)C(=O)N[C@H]2CSSC[C@H](NC(=O)[C@H](CCC(=O)O)NC(=O)[C@H](CCCCN)NC(=O)[C@H](CC(=O)O)NC(=O)[C@H](CCCCN)NC(=O)[C@H](Cc3ccc(O)cc3)NC(=O)[C@H]([C@@H](C)O)NC(=O)[C@H](Cc3ccccc3)NC2=O)C(=O)N[C@@H](C(C)C)C(=O)N[C@@H](Cc2ccc(O)cc2)C(=O)N[C@@H](Cc2ccc(O)cc2)C(=O)N1)C(=O)N[C@H](C(=O)N[C@@H](Cc1c[nH]c2ccccc12)C(=O)O)[C@@H](C)CC [endothelin-3, reference compound] | > 10 | GLP-1 secretion from GLUTag cells, result in words [1]: no effect; GLP-1 secretion from GLUTag cells, result in words ([1]; listed as Endothelin-3 (EDN3 97-117)): not sufficient to elicit a GLP-1 release |
| YYAHLDIIAINTPEQTVPYGLSNYRESLRGKR-NH2 [EDN3 109-140 C111A W117A] | > 10 | – |
| TCFTYKDKECVYYCHLDIIWINTPEQTVPYGLSNYRESLRGKR-NH2 (cysteines drawn unpaired) [EDN3 98-140] | > 10 | GLP-1 secretion from GLUTag cells, result in words [1]: do not measurably stimulate GLP-1 secretion |
| ATCFTYKDKECVYYAHLDIIWINTPEQTVPYGLSNYRESLRGKR-NH2 (disulfide 3-11) [EDN3 97-140 C97A, C111A] | 2.7 | – |
| endothelin-1 [reference compound] | – | EC50 [3]: 0.0027 ± 0.001 µM |
| INTPEQTVPYGLSNYRESLRGKR-NH2 [EDN3 118-140] | > 10 | – |
| CC[C@H](C)[C@H](NC(=O)[C@H](Cc1c[nH]c2ccccc12)NC(=O)[C@@H](NC(=O)[C@@H](NC(=O)[C@H](CC(=O)O)NC(=O)[C@H](CC(C)C)NC(=O)[C@H](Cc1c[nH]cn1)NC(=O)[C@H](CS)NC(=O)[C@H](Cc1ccc(O)cc1)NC(=O)[C@H](Cc1ccc(O)cc1)NC(=O)[C@@H](NC(=O)[C@H](CS)NC(=O)[C@H](CCC(=O)O)NC(=O)[C@H](CCCCN)NC(=O)[C@H](CC(=O)O)NC(=O)[C@H](CCCCN)NC(=O)[C@@H](N)Cc1ccc(O)cc1)C(C)C)[C@@H](C)CC)[C@@H](C)CC)C(=O)N[C@@H](CC(N)=O)C(=O)N[C@H](C(=O)N1CCC[C@H]1C(=O)N[C@@H](CCC(=O)O)C(=O)N[C@@H](CCC(N)=O)C(N)=O)[C@@H](C)O [EDN3 102-123] (H-YKDKECVYYCHLDIIWINTPEQ-NH2; N-terminus assumed) | > 10 | – |
| B1 | – | binding result [4]: no binding (tested: up to 3 µM); binding result [5]: no binding (tested: up to 3 µM) |
